Assay results taken from paper PMC3382171 (PLoS ONE, 2012).

Legend:
Test in all cases: biochemical
Set-up in all cases: Invitrogen SelectScreen kinase panel, percent inhibition at 1 uM, ATP at Km
Conditions in all cases: read-out: Invitrogen KSS %Inh at 1 µM
AKT1 (PKB alpha) = AKT1 (PKB alpha) (Homo sapiens, UniProt P31749)
Description: (§1) The METi and RAFi were screened against kinase panels (SelectScreen, Invitrogen; University of Dundee, Division of Signal Transduction Therapy, UK; Upstate Biotechnology/Millipore, Billerica, MA). In these selectivity assays the concentration of ATP was set to the Km value of ATP for each kinase tested to allow for a relative potency comparison between the various kinases. The compounds were tested at 1 µM final concentration. […] Supplementary file pone.0039653.s002.pdf: Figure S2 Kinase Selectivity Screen of RAFi. (A) Kinase selectivity screen (KSS) performed at University of Dundee (Division of Signal Transduction Therapy). Values in % inhibition of phosphorylation given 1 µM of RAFi compared to control. (B) KSS performed at Invitrogen (Selectscreen Service) compared to control. Values in % inhibition of phosphorylation given 1 µM of RAFi. (C) Cell based dose response kinase inhibition of indicated kinases by RAFi. (PDF) Click here for additional data file.

AKT3 (PKB gamma) = AKT3 (PKB gamma) (Homo sapiens, UniProt Q9Y243)
Description: as §1

AXL = AXL (Homo sapiens, UniProt P30530)
AXL, sequence (P30530 whole entry): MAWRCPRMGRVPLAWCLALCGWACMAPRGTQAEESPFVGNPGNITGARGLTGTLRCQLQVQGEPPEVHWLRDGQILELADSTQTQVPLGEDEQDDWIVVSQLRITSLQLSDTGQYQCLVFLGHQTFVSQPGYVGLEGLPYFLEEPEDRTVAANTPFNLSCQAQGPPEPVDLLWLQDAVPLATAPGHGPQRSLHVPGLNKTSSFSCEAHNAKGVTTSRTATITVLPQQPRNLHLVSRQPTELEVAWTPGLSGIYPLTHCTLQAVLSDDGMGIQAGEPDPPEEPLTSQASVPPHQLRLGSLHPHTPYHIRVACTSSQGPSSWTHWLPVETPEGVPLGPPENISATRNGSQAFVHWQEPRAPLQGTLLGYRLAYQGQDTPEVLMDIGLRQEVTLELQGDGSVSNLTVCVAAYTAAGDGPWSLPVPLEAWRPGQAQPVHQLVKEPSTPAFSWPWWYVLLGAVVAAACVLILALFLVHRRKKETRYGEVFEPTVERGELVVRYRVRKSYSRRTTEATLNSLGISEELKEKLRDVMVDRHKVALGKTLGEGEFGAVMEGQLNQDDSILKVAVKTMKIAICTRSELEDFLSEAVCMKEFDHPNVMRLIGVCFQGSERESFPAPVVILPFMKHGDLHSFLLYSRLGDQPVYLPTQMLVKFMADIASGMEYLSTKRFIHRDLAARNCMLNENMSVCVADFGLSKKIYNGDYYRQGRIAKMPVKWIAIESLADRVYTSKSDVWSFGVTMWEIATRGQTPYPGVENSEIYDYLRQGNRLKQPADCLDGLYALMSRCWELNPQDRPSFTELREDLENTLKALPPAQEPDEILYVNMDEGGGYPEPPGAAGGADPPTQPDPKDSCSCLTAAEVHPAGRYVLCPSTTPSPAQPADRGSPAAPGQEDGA
Description: as §1

CAMK2A (CaMKII alpha) = CAMK2A (CaMKII alpha) (Homo sapiens, UniProt Q9UQM7)
Description: as §1

CDK2/CyclinA = CDK2/CyclinA (Homo sapiens, UniProt P24941)
Description: as §1

CSK = CSK (Homo sapiens, UniProt P41240)
Description: as §1

DYRK1A = DYRK1A (Homo sapiens, UniProt Q13627)
Description: as §1

FES (FPS) = FES (FPS) (Homo sapiens, UniProt P07332)
Description: as §1

IGF1R = IGF1R (Homo sapiens, UniProt P08069)
Description: as §1

IKBKB (IKK beta) = IKBKB (IKK beta) (Homo sapiens, UniProt O14920)
Description: as §1

IRAK4 = IRAK4 (Homo sapiens, UniProt Q9NWZ3)
IRAK4, sequence (Q9NWZ3 whole entry): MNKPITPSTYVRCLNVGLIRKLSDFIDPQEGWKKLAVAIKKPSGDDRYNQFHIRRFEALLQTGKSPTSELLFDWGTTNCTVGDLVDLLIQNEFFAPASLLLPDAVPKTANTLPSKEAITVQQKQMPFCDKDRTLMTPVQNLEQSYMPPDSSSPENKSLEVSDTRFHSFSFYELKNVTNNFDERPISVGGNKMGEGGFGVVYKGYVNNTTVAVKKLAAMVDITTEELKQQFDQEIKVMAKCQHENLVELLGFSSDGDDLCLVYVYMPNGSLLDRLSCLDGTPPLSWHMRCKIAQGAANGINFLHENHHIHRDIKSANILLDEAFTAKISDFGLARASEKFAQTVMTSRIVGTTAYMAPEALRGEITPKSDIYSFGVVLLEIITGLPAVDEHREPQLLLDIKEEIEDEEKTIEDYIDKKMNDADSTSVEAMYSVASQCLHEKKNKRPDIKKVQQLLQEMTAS
Description: as §1

ITK = ITK (Homo sapiens, UniProt Q08881)
ITK, sequence (Q08881 whole entry): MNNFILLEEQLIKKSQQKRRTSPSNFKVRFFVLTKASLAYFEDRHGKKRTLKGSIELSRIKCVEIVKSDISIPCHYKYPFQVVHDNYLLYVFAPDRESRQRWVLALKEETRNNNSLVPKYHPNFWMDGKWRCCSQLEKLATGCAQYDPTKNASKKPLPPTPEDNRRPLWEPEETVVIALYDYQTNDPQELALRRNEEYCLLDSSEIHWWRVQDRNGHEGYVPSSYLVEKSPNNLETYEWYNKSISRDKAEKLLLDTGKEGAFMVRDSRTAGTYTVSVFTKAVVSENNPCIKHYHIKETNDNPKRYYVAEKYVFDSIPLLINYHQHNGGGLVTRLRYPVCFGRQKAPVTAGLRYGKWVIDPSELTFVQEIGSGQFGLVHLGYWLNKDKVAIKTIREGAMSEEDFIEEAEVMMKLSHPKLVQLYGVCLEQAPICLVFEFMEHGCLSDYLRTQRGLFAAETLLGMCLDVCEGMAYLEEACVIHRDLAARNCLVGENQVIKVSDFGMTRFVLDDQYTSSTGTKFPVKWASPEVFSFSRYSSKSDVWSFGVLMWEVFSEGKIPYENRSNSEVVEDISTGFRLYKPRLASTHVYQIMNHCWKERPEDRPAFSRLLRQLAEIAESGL
Description: as §1

MAPK3 (ERK1) = MAPK3 (ERK1) (Homo sapiens, UniProt P27361)
Description: as §1

MET (cMet) = MET (cMet) (Homo sapiens, UniProt P08581)
Description: as §1

MET M1250T = MET M1250T (Homo sapiens, UniProt P08581, M1250T)
Description: as §1

MYLK2 (skMLCK) = MYLK2 (skMLCK) (Homo sapiens, UniProt Q9H1R3)
Description: as §1

PRKCG (PKC gamma) = PRKCG (PKC gamma) (Homo sapiens, UniProt P05129)
Description: as §1

PRKD1 (PKC mu) = PRKD1 (PKC mu) (Homo sapiens, UniProt Q15139)
PRKD1 (PKC mu), sequence (Q15139 whole entry): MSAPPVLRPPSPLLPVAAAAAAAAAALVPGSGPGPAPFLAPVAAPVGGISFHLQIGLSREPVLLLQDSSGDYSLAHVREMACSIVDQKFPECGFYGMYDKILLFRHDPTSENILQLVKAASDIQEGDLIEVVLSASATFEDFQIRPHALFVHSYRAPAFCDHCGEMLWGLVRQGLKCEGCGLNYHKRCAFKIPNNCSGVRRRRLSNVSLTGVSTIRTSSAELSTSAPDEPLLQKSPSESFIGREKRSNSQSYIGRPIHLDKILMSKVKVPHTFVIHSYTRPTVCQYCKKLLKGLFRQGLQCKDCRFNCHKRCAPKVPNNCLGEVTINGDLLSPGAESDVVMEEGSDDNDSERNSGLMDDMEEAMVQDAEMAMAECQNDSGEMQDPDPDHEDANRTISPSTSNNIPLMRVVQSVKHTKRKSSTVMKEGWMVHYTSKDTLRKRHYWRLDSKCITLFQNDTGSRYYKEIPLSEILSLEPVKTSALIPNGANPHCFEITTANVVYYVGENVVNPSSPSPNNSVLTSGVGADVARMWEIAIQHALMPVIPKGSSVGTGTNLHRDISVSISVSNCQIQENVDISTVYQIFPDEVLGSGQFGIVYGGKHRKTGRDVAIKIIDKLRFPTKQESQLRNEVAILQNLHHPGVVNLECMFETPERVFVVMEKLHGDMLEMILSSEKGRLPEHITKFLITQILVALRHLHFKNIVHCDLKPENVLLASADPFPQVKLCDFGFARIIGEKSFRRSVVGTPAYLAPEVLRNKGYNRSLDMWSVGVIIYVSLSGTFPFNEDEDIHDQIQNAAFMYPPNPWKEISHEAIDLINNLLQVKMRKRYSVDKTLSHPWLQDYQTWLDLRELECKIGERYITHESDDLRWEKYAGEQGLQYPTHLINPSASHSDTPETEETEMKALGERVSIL
Description: as §1

PRKD2 (PKD2) = PRKD2 (PKD2) (Homo sapiens, UniProt Q9BZL6)
Description: as §1

RPS6KA3 (RSK2) = RPS6KA3 (RSK2) (Homo sapiens, UniProt P51812)
Description: as §1

STK22B (TSSK2) = STK22B (TSSK2) (Homo sapiens, UniProt Q96PF2)
STK22B (TSSK2), sequence (Q96PF2 whole entry): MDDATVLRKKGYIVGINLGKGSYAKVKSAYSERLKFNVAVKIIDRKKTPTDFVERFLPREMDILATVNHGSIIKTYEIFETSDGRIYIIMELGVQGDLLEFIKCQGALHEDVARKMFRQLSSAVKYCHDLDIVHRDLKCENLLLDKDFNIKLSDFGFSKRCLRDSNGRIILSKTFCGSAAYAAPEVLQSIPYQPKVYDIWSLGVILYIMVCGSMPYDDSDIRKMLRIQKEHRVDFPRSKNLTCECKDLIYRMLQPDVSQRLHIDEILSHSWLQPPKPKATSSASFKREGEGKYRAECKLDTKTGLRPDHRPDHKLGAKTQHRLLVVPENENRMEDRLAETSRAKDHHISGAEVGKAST
Description: as §1

STK3 (MST2) = STK3 (MST2) (Homo sapiens, UniProt Q13188)
STK3 (MST2), sequence (Q13188 whole entry): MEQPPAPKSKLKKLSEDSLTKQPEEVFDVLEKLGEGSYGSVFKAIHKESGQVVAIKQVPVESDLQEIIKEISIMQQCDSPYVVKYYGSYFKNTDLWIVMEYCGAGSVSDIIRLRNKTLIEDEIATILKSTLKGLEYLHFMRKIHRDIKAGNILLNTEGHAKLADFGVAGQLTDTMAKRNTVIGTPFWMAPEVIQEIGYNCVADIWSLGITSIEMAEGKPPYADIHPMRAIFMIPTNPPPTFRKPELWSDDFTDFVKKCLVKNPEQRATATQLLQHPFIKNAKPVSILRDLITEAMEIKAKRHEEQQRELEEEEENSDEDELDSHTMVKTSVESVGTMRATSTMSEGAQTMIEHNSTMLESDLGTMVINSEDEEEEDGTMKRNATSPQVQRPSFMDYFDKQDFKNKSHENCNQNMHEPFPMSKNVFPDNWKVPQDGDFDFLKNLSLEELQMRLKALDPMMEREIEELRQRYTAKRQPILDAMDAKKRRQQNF
Description: as §1

AKT1 (PKB alpha), sequence (P31749 whole entry): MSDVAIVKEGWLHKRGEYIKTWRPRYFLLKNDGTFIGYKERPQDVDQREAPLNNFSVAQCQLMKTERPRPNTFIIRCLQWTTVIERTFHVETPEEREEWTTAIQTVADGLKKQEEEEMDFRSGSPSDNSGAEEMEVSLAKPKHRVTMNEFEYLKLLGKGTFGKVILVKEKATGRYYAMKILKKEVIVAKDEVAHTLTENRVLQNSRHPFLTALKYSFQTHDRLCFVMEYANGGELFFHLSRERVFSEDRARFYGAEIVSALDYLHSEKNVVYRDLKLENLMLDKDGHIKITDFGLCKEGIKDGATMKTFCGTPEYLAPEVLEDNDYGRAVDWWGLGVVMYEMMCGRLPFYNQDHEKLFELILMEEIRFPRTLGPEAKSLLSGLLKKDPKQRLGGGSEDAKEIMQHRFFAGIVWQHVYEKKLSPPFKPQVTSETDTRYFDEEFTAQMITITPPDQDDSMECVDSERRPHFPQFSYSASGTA

- inhibition at 1 µM (AKT1 (PKB alpha)): 5%
- inhibition at 1 µM (AKT3 (PKB gamma)): 7%
- inhibition at 1 µM (AXL): -1%
- inhibition at 1 µM (CAMK2A (CaMKII alpha)): -1%
- inhibition at 1 µM (CDK2/CyclinA): 18%
- inhibition at 1 µM (CSK): 1%
- inhibition at 1 µM (DYRK1A): -12%
- inhibition at 1 µM (FES (FPS)): -11%
- inhibition at 1 µM (IGF1R): 9%
- inhibition at 1 µM (IKBKB (IKK beta)): 0%
- inhibition at 1 µM (IRAK4): -16%
- inhibition at 1 µM (ITK): 0%
- inhibition at 1 µM (MAPK3 (ERK1)): 28%
- inhibition at 1 µM (MET (cMet)): 12%
- inhibition at 1 µM (MET M1250T): 7%
- inhibition at 1 µM (MYLK2 (skMLCK)): 20%
- inhibition at 1 µM (PRKCG (PKC gamma)): -15%
- inhibition at 1 µM (PRKD1 (PKC mu)): 37%
- inhibition at 1 µM (PRKD2 (PKD2)): 40%
- inhibition at 1 µM (RPS6KA3 (RSK2)): -9%
- inhibition at 1 µM (STK22B (TSSK2)): 2%
- inhibition at 1 µM (STK3 (MST2)): 9%
SMILES: N#CCCNc1nccc(-c2cn(CC(F)F)nc2-c2cnc3[nH]ccc3c2)n1 [RAFi, PF-04880594]
